Experimental data from patent publication US20050245559A1, “Treatment and prevention of prostate cancer” (priority 2004, published 2005).

Columns and labels:
LNCaP cells [1] = assay: growth and proliferation of LNCaP cells stimulated by fetal calf serum (FCS); assay type: cell-based
Caspase-9 = Caspase-9 activation; assay type: cell-based; details: FIG. 6
cytochrome-C = assay: mitochondrial cytochrome C release; assay type: cell-based; details: FIG. 8
Caspase-8 = Caspase-8 activation; assay type: cell-based; details: FIG. 6
[2] = system: PC3 prostate cancer cells; assay: clonogenic activity of PC3 prostate cancer cells; assay type: cell-based; details: dose dependent, FIG. 5
[3] = system: LNCaP prostate cancer cells; assay: flow cytometry of apoptosis and necrosis in LNCaP cells; assay type: cell-based; details: 24 hours or 48 hours exposure
Text: (§1) The increasing apoptosis and necrosis in hormone-independent and hormone dependent prostate cancer cells after exposure to tetrandrine occurs in a dose- and time-dependent manner.

calcium channel = details: cited from earlier work
Caspase-3 = Caspase-3 activation; assay type: cell-based; details: FIG. 6
[4] = system: prostate specific antigen (PSA); assay: DHT-stimulated prostate specific antigen (PSA) expression in LNCaP cells; assay type: cell-based
Caspase-7 = Caspase-7 activation; assay type: cell-based; details: FIG. 6
Bcl-XL = Bcl-XL down-regulation in prostate cancer cells; assay type: cell-based; details: FIG. 9
[5] = system: PC3 prostate cancer cells; assay: killing of hormone-independent PC3 prostate cancer cells; assay type: cell-based; details: increasing concentrations, 96 hours of exposure; FIG. 4
LNCaP cells [6] = assay: growth and proliferation of LNCaP cells stimulated by dihydrotestosterone (DHT); assay type: cell-based
Protocol: Tetrandrine inhibits the growth and proliferation of prostate cancer cells in a dose- and time-dependent manner. For example, the growth and proliferation of LNCaP cells stimulated by dihydrotestosterone (DHT) and fetal calf serum (FCS) can be stopped or inhibited and, at higher concentrations or at longer exposure times, the cells are killed. Preferably, the concentration of tetrandrine used is between about 10 μM and about 60 μM. […] The cells take on an atrophied appearance after contact with tetrandrine.

LNCaP cells [7] = assay: dose response of LNCaP growth and proliferation, optical density of stained live cells; assay type: cell-based
prostate cancer cells [8] = assay: morphology of cellular organelles of prostate cancer cells; assay type: cell-based; details: about 10 μM and 20 μM tetrandrine
prostate cancer cells [9] = assay: cell cycle effect in prostate cancer cells; assay type: cell-based; details: stated as apparent mechanism
Text: as §1

[10] = doses of from 100 mg/day to 300 mg/day, prior studies; cited from earlier work
PARP = PARP cleavage; assay type: cell-based; details: FIG. 7

COc1ccc2cc1Oc1ccc(cc1)CC1c3cc(c(OC)cc3CCN1C)Oc1c(OC)c(OC)cc3c1C(C2)N(C)CC3 (centres unmarked) [tetrandrine, (1B)-6,6′,7,12-tetramethoxy-2,2′-dimethyl-berbaman]
cell number and morphology of LNCaP cells growing under FCS (LNCaP cells [1]; 10 μM tetrandrine, FIG. 2A): decrease in cell number and the notable change in cell morphology | cell number and morphology of LNCaP cells growing under FCS (LNCaP cells [1]; 20 μM tetrandrine, FIG. 2A): the decrease in cell number and the change in cell morphology is even more apparent | growth and proliferation of LNCaP cells stimulated by FCS (LNCaP cells [1]; about 10 μM to about 60 μM tetrandrine, FIG. 1B): inhibition of the growth and proliferation | cell number and morphology of LNCaP cells growing under FCS (LNCaP cells [1]; concentration not given): sharp decrease in cell number and a significant change in cell morphology | Caspase-9 activation (Caspase-9): concentration-dependent increase | cytoplasmic cytochrome-C (cytochrome-C): concentration-dependent increase | mitochondrial cytochrome-C (cytochrome-C): concentration-dependent decrease | Caspase-8 activation (Caspase-8): concentration-dependent increase | clonogenic activity of PC3 cells [2]: inhibition of the clonogenic activity | clonogenic activity of PC3 cells ([2]; listed as Tetrandrine): inhibits the clonogenic activity | apoptosis and necrosis by flow cytometry [3]: increasing apoptosis and necrosis in a dose- and time-dependent manner | calcium channel blocker activity (calcium channel): minimal | Caspase-3 activation (Caspase-3): concentration-dependent increase | DHT-stimulated PSA expression [4]: inhibits DHT-stimulated prostate specific antigen (PSA) expression in a dose-dependent manner | Caspase-7 activation (Caspase-7): concentration-dependent increase | Bcl-XL level in prostate cancer cells (Bcl-XL): concentration-dependent down-regulation | killing of hormone-independent PC3 cells [5]: dose-dependent killing | cell number and morphology of LNCaP cells in presence of FCS and DHT (LNCaP cells [6]; about 10 μM to about 20 μM tetrandrine, FIG. 2B): decrease in cell number and atrophied appearance | growth and proliferation of LNCaP cells stimulated by DHT (LNCaP cells [6]; about 10 μM to about 60 μM tetrandrine, FIG. 1A): inhibition of the growth and proliferation | death of LNCaP cells at longer exposure (LNCaP cells [7]; 48 hours and 72 hours versus 24 hours, each concentration): death of LNCaP cells is greater | growth of LNCaP cells, stained live cells (LNCaP cells [7]; about 5 μM tetrandrine, 24 hours): growth of LNCaP cells is inhibited | killing of LNCaP cells, stained live cells (LNCaP cells [7]; about 60 μM tetrandrine, 24 hours): almost all LNCAP cells are killed | morphology of nuclei and cytoskeleton (prostate cancer cells [8]): nuclei of prostate cancer cells appear to shrink and round while the cytoskeleton is disrupted | mechanism of decreased proliferation / increased apoptosis (cell cycle) (prostate cancer cells [9]): cell cycle arrest in G1 | toxicity [10]: minimal toxicity | PARP cleavage (PARP): concentration-dependent increase
